Results on 9 compounds are retold here after patent US3954793A, “1-(2-Propynyl)-1 H-indazole compounds” (priority 1973, dated 1976).

Structures are written as SMILES.

The test system of data set [1] is IN/WHO strain house flies. Kind of data set: topical application, percent kill after 24 hours, susceptible IN/WHO strain. It is filed as in vivo, female). Conditions: for percent kill after 24 hours, synergist alone: insecticide 0, synergist 1 μg/fly; for percent kill after 24 hours, synergist alone (GS 13005 part of Table XXXI): GS 13005 0, synergist 1 μg/fly; for percent kill after 24 hours, with GS 13005: GS 13005 0.10 + synergist 0.50 μg/fly; for percent kill after 24 hours, with Mobam: Mobam 0.20 + synergist 1 μg/fly. On the procedure:
(§1) In Table IX, and in the tables following it, the doses of topically applied insecticides and of synergists unless otherwise noted are expressed as micrograms per fly (μg/fly).
(§2) The synergistic effect of O-(2-propynyl) oximes with mobam was determined from topical application tests on susceptible, female, IN/WHO strain house flies and from tests on resistant, female, Rutgers A strain house flies. The synergist and insecticide were dissolved in ACS Grade acetone in such quantities that a 1.0 μ liter volume applied to the thorax of 3-to-5 day old CO2 -anesthetized female adult house flies contained the desired dosage. After being treated, the flies were confined, 10 to a plaster petri dish, with 3-5 dishes/treament, and held for 24-hr. observation of mortality. Reconstituted skim milk on cotton dental wicks was provided during the holding period. The percent kills after 24 hours are shown in Table X for the IN/WHO strain and Table XI for the Rutgers A strain.
(§3) The synergistic effect of benzyl 2-propynyl ethers with mobam was determined from topical application tests on IN/WHO and Rutgers A strain houseflies, following the procedure of Example 5. The percent kills after 24 hours are shown in Table XIV for the IN/WHO strain and in Table XV for the Rutgers A strain.
The effects of varying the insecticide dose and the synergist-insecticide ratio are further illustrated, with synergist compounds II-D, II-E, II-F and Mobam insecticide, in Tables XVI, XVII and XVIII. […]
The effect on IN/WHO flies of synergist compound IV-C, identified in Table IV, with mobam was determined by the topical application procedure of Example 5. […]
(§4) The synergistic effect with GS 13005 of compounds I-A, I-B, I-D, I-E, I-F, I-G and I-I was determined from topical application tests to IN/WHO strain, Rutgers A strain and polyvalent CH strain houseflies using the procedures of Example 5. The percent kills of the IN/WHO strain flies after 24 hours are shown in Table XXVIII; of the Rutgers A strain, in Table XXIX; and of the polyvalent CH strain, in Table XXX. The doses of insecticide alone to the CH strain files caused 10-40% mortality.
The synergistic effect with Diazinon and GS 13005 of various of the benzyl 2-propynyl ethers identified in Tables II and IIa was determined by topical application tests on IN/WHO strain, and Rutgers A strain and polyvalent, resistant, CH strain houseflies using the procedures of Example 5. The percent kills after 24 hours of IN/WHO strain flies are shown in Table XXXI; of Rutgers A strain flies, in Table XXXII; and of CH strain flies, in Table XXXIII. The doses of insecticide alone to the CH strain flies caused 10-40% mortality. […]
(§5) The synergistic effect on IN/WHO strain flies and Rutgers A strain flies of compound IV-C with GS 13005 and with Diazinon was determined by the topical application procedure of Example 5. The percent kills of IN/WHO strain flies after 24 hours are shown in Tables XXXVI and XXXVII; the percent kills of Rutgers A strain flies are shown in Tables XXXVIII and XXXIX.

Data set [2] concerns Rutgers A strain house flies. Put plainly: topical application, percent kill after 24 hours, resistant Rutgers A strain. The data set is classed as in vivo, female). The settings on record: for percent kill after 24 hours, with GS 13005: GS 13005 1.0 + synergist 5.0 μg/fly; for percent kill after 24 hours, with Mobam: Mobam 0.40 + synergist 2.0 μg/fly. On the procedure: as §1, §2, §3
The synergistic effect with Diazinon of compounds I-B, I-D, I-F, I-G, I-H and I-I, identified in Tables I and Ia, was determined from topical application tests on IN/WHO strain houseflies and on Rutgers A strain houseflies by the procedure of Example 5. The percent kills after 24 hours are shown in Table XXV for the IN/WHO strain and Table XXVI for the Rutgers A strain.
as §4
The synergistic effect with Diazinon and GS 13005 of various of the benzyl 2-propynyl ethers identified in Tables II and IIa was determined by topical application tests on IN/WHO strain, and Rutgers A strain and polyvalent, resistant, CH strain houseflies using the procedures of Example 5. The percent kills after 24 hours of IN/WHO strain flies are shown in Table XXXI; of Rutgers A strain flies, in Table XXXII; and of CH strain flies, in Table XXXIII. The doses of insecticide alone to the CH strain flies caused 10-40% mortality.
as §5

The test system of a further data set is male mice. Kind of data set: extension of sleeping time of depressant drugs by synergists. The settings on record: for Mean Sleeping Time, Noludar / Relative Sleeping Time, Noludar: Noludar 110 mg/kg; for Relative Sleeping Time, Noludar / Relative Sleeping Time, Secobarbital: treated/control; for Mean Sleeping Time, Secobarbital / Relative Sleeping Time, Secobarbital: Secobarbital 37 mg/kg. It is filed as in vivo, male mice (Swiss albino white). On the procedure: The selectivity of the synergist compounds of this invention is illustrated by the results of sleeping-time extension tests and of acute toxicity tests on Swiss albino white male mice.
The effect of various synergist compounds on sleeping time of sodium secobarbital [Secobarbital] and of 3,3-diethyl-5-methyl-2,4-dioxypiperidine [Noludar] was determined by administering the drug, with and without synergist, to approximately 38-day old male mice weighing from 25 to 30 grams. Synergists were administered in each of two doses, 74.0 mg/kg (dilution being 2.0 mg/0.1 ml corn oil), and 110.0 mg/kg (dilution 3.0 mg/0.1 ml oil). Secobarbital was administered at a dose of 37.0 mg/kg (dilution 1.0 mg/0.1 ml water). Noludar was administered at a dose of 110.0 mg/kg (dilution 3.0 mg/0.1 ml water). The synergist was administered one hour prior to administration of the Secobarbital or Noludar. Secobarbital and Noludar sleeping times were obtained for both the control (drug only) and the treated (synergist plus drug) mice by noting the time lapse between the administration of the drug and the recovery of the righting reflex, i.e. when the animal regains conciousness and can walk up an inclined wooden tray with coordination. The relative sleeping time (R.S.) was noted. The R.S. is the extended sleeping time in the treated mice (synergist plus drug) divided by the sleeping time in the control mice (drug only). The mean sleeping time for the treated mice and the R.S. are shown on Table XXXXIV for various synergist compounds.

The subject of data set [3] is Swiss albino, white male mice. Put plainly: acute toxicity and synergism of acute toxicity in mice. The data set is classed as in vivo. Conditions: for number of mice dead, with Dimetilan: 48 hours; for number of mice dead, with GS 13005: GS 13005 71 + synergist 213 mg/kg; for number of mice dead, with Methadone: Methadone 32 + synergist 215 mg/kg; for number of mice dead, with Secobarbital: Secobarbital 90 + synergist 215 mg/kg. On the procedure: To determine the acute toxicity of dimetilan alone, eight dosage levels of Dimetilan, ranging from 4 to 32 mg per kg were applied to eight, Swiss, albino, white, male mice per dosage level. The mice weighed approximately 23 to 27 grams and were five to six weeks old. The Dimetilan was administered intraperitoneally in 0.1 ml of corn oil one hour after the administration of the same dose of corn oil alone.
To determine the acute toxicity of the synergist alone, various synergists were administered intraperitoneally at a dose of 1000 mg/kg to each of a group of eight mice. The number of animals dead at the end of 72 hours is reported in the left hand column of Table XXXXVI.
The synergism of the acute toxicity of Dimetilan by various synergists was determined by tests on Swiss albino, white male mice aged five to six weeks and weighing 23 to 27 grams. The synergists and insecticides were dissolved in corn oil and the drugs were dissolved in distilled water. All compounds were administered intraperitoneally by injection in the lower quadrent of the abdomen. The synergist was administered in 0.1 ml of corn oil one hour prior to administration of the insecticide. Eight mice were treated, per dosage, with each synergist. The mice were watched for a minimum of 6 hours while held in a glass jar with bedding individually after intraperitoneal injection of the test solutions. Lethality was noted, the animals were weighed and transferred in cages, and food and water were supplied. Control mice were given 0.1 ml of corn oil at the time of administration of the synergist to the test mice and 0.1 ml corn oil plus Dimetilan at the time of administration of the insecticide to the test mice.
By the same procedure, the synergism of acute toxicity of GS 13005, Secobarbital and 6-dimethylamino-4,4-diphenyl-3-heptanone [Methadone] was determined.

Setting [4] is: insecticide 0, synergist 5.0 μg/fly.
Setting [5] is: synergist 110 mg/kg one hour prior.
Where [6] appears, read: synergist 74 mg/kg one hour prior.
The mark [7] stands for this setting: Dimetilan 8 + synergist 80 mg/kg i.p., eight mice.
Setting [8] is: Dimetilan 8 + synergist 240 mg/kg i.p., eight mice.

Turning to `CNC(=O)Oc1ccccc1OC(C)C` [Baygon, o-isopropoxyphenyl methylcarbamate, reference compound], in data set [1] (insecticide 0.125 μg/fly (Table XXI)), the “24 hour percent mortality, insecticide alone” value is on record as 0%.
Regarding `COP(=O)(OC)O/C(C)=C/C(=O)N(C)C` [Bidrin, 3-hydroxy-N,N-dimethyl-cis-crotonamide, dimethyl phosphate, reference compound], the “24 hour percent mortality, Bidrin alone” value in data set [1] (Bidrin 0.063 μg/fly) and in data set [1] (Bidrin 0.13 μg/fly) was 0% in each case.
Take `COP(=O)(OC)OC(=CCl)c1cc(Cl)c(Cl)cc1Cl` [Gardona, 2-chloro-1-(2,4,5-trichlorophenyl) vinyl dimethyl phosphate, reference compound]: the “24 hour percent mortality, Gardona alone” value was determined as 13% in data set [1] (Gardona 0.031 μg/fly), 73% in data set [1] (Gardona 0.063 μg/fly) and 100% in data set [1] (Gardona 0.125 μg/fly).
Regarding `C#CCON=Cc1ccc(Cl)cc1` [I-H], the “percent kill after 24 hours, with Diazinon” value in data set [1] (Diazinon 0.02 + synergist 0.10 μg/fly) is 47%; in data set [2] (Diazinon 1.5 + synergist 7.5 μg/fly), 80%; in data set [2] (Diazinon 3.0 + synergist 15 μg/fly), 100%. Also, the “percent kill after 24 hours, synergist alone” value in data set [1] turned out to be 0%; in data set [2] (insecticide 0, synergist 7.5 μg/fly), 0%; in data set [2] (insecticide 0, synergist 15 μg/fly) it was 0%.
Regarding `C#CCOCc1cccc(Cl)c1[N+](=O)[O-]` [II-I], the “percent kill after 24 hours, synergist alone (GS 13005 part of Table XXXI)” value in data set [1] turned out to be 7%. The “percent kill after 24 hours, with GS 13005” value (“percent kill … with GS 13005” for short) is 99% in data set [1] and 83% in data set [2]. Moreover, the “percent kill after 24 hours, with Mobam” value in data set [1] came to 97%; in data set [2], 37%. Moreover, the “percent kill after 24 hours, synergist alone” value in data set [1] stood at 7%; in data set [2] (setting [4]), 3%. The “Mean Sleeping Time, Noludar” value in the data set with male mice (setting [5]) was 56 min. For the same compound, in the data set on male mice (synergist 110 mg/kg), the “Relative Sleeping Time, Noludar” value is reported as 1.8. The “Mean Sleeping Time, Secobarbital” value with male mice (setting [6]) was found to be 31 min; in the data set with male mice (setting [5]) it was 32 min. In addition, the “Relative Sleeping Time, Secobarbital” value in the data set on male mice (synergist 74 mg/kg) is 1.2; in the data set on male mice (synergist 110 mg/kg), 1.3. For the same compound, the results for the “number of mice dead, with Dimetilan” value in data set [3] (setting [7]) and in data set [3] (setting [8]) were 0 and 3, respectively.
`C#CCOCc1ccc(Cl)cc1[N+](=O)[O-]` [II-J]: in data set [1], the “percent kill after 24 hours, synergist alone (GS 13005 part of Table XXXI)” value was 13%; the “percent kill … with GS 13005” value was determined as 99%; the “percent kill after 24 hours, with Mobam” value came out at 100%; the “percent kill after 24 hours, synergist alone” value was 13%. Besides, in data set [2], the “percent kill … with GS 13005” value is 100% and the “percent kill after 24 hours, with Mobam” value worked out at 70%. In addition, in data set [2] (setting [4]), the “percent kill after 24 hours, synergist alone” value is reported as 0%. In the data set on male mice (setting [5]), the “Mean Sleeping Time, Noludar” value was found to be 70 min and the “Mean Sleeping Time, Secobarbital” value came out at 30 min. For the same compound, in the data set on male mice (synergist 110 mg/kg), the “Relative Sleeping Time, Noludar” value came out at 2.2 and the “Relative Sleeping Time, Secobarbital” value is recorded as 1.4. Moreover, the “Mean Sleeping Time, Secobarbital” value in the data set with male mice (setting [6]) was determined as 27 min. Besides, the “Relative Sleeping Time, Secobarbital” value with male mice (synergist 74 mg/kg) was found to be 1.0. Further, the “number of mice dead, with Dimetilan” value in data set [3] (setting [7]) stood at 0. Besides, the “number of mice dead, with Dimetilan” value in data set [3] (setting [8]) is recorded as 4. Moreover, in data set [3], the “number of mice dead, with GS 13005” value was found to be 6; the “number of mice dead, with Methadone” value came to 3; the “number of mice dead, with Secobarbital” value turned out to be 0.
`CCC(=O)C(CC(C)N(C)C)(c1ccccc1)c1ccccc1` (centres unmarked) [Methadone, 6-dimethylamino-4,4-diphenyl-3-heptanone, reference compound]: the “number of mice dead, control (Methadone alone)” value in data set [3] (Methadone (32 mg/kg) in 0.1 ml corn oil) was found to be 2.
Consider `C=CCC1(C(C)CCC)C(=O)NC(=O)NC1=O` (centres unmarked) [Secobarbital, sodium secobarbital, reference compound], for which, in data set [3] (Secobarbital (90 mg/kg) in 0.1 ml corn oil), the “number of mice dead, control (Secobarbital alone)” value came out at 0.
In the case of `CCOCCOCCOC(C)Oc1ccc2c(c1)OCO2` (centres unmarked) [Sesoxane, reference compound], in the data set on male mice (synergist 110 mg/kg), the “Relative Sleeping Time, Noludar” value was 3.1 and the “Relative Sleeping Time, Secobarbital” value was found to be 8.3. In addition, in the data set with male mice (synergist 74 mg/kg), the “Relative Sleeping Time, Secobarbital” value is reported as 6.1. The “number of mice dead, with Dimetilan” value in data set [3] (setting [7]) is 8. Besides, the “number of mice dead, with Dimetilan” value in data set [3] (setting [8]) was 8. Also, in data set [3], the “number of mice dead, with GS 13005” value came out at 0; the “number of mice dead, with Methadone” value is listed as 5; the “number of mice dead, with Secobarbital” value came out at 6. Besides, the “number of mice dead, synergist alone” value in data set [3] (synergist 1000 mg/kg i.p., Dimetilan 0, 72 hours, eight mice) was 1.
